These are literature values, as cited in paper PMC9851200, “Multiparameter phenotypic screening for endogenous TFEB and TFE3 translocation identifies novel chemical series modulating lysosome function” (Autophagy, 2022).

Molecules are shown by their SMILES.

In data set [1] the target is T1, kinases (KINOMEscan panel) (Homo sapiens, UniProt O14976).
T1 sequence (O14976 1-1311): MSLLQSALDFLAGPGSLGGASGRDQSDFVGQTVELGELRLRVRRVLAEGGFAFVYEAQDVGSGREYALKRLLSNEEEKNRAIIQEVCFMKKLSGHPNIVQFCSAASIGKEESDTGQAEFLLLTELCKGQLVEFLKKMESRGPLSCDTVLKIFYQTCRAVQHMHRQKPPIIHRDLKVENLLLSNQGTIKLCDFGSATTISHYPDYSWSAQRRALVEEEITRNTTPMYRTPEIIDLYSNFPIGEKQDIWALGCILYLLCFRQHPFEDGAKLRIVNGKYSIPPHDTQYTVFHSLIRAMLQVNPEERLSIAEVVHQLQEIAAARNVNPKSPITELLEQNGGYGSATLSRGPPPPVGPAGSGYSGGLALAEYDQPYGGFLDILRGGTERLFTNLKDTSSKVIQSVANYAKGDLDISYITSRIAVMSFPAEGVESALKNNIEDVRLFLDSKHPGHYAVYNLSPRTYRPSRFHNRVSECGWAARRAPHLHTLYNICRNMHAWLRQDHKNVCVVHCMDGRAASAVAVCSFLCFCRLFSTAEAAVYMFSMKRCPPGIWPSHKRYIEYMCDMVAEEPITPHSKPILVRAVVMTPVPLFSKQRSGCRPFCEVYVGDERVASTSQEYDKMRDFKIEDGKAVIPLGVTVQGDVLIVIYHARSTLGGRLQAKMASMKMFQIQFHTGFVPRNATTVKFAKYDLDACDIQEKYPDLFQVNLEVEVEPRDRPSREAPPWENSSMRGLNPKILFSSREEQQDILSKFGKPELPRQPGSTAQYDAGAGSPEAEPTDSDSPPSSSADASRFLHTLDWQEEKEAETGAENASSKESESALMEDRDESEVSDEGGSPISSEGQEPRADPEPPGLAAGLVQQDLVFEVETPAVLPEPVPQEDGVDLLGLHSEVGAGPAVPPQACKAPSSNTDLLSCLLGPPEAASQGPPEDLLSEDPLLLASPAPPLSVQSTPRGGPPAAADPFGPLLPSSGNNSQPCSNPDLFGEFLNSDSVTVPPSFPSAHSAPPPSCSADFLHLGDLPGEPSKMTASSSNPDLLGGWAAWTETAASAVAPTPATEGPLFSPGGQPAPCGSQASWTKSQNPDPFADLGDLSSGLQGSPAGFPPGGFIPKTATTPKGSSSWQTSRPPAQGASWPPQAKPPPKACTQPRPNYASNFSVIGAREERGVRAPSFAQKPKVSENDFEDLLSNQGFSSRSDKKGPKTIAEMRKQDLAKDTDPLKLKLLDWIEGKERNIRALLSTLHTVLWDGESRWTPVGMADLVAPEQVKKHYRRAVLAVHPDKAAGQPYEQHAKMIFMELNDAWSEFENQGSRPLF
The arrangement: method as in original PKIS2 published data. The note with it: kinase GAK; Published KINOMEscan; ref original PKIS2 published data; cited from earlier work.

Data set [2] concerns the target T2, kinases (KINOMEscan panel) (Homo sapiens, UniProt Q8WXR4).
T2 sequence (Q8WXR4 1-1341): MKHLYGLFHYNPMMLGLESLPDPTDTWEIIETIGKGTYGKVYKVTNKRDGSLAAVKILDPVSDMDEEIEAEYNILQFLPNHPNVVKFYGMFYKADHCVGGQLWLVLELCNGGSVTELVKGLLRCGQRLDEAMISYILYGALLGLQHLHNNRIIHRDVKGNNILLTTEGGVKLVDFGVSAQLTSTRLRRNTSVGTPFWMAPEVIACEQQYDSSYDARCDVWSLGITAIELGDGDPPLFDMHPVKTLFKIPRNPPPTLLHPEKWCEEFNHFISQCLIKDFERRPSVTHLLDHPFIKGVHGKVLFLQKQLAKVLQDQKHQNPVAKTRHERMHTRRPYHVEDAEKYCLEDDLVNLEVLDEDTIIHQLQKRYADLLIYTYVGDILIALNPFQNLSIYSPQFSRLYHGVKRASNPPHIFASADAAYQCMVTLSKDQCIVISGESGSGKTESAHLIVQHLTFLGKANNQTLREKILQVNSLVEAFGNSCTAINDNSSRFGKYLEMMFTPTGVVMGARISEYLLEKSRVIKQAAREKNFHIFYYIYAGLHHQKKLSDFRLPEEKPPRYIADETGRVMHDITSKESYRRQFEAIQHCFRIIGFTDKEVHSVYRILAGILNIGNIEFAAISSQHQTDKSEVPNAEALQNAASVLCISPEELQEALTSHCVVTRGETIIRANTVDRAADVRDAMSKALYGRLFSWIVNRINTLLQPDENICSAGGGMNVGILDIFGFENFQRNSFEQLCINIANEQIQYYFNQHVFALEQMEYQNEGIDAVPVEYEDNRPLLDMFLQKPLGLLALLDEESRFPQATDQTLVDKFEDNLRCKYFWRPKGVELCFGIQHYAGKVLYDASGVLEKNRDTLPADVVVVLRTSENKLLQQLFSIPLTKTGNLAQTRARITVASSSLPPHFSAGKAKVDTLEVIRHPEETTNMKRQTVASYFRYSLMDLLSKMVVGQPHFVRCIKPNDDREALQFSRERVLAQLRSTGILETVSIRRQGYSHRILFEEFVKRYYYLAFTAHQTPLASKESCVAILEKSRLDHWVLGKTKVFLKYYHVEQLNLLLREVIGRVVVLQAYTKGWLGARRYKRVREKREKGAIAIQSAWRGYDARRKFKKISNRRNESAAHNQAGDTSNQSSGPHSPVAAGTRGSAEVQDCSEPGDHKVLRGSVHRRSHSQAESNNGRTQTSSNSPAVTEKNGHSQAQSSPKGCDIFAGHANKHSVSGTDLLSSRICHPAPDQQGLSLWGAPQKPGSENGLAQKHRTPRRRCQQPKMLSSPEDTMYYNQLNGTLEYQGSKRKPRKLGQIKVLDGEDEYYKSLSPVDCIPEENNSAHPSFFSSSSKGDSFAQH
The arrangement: method as in original PKIS2 published data. The note with it: MYO3B; Published KINOMEscan; ref original PKIS2 published data; cited from earlier work.

As to `Cc1cccc(-c2nc(Nc3ccncc3)c3ccccc3n2)n1` [NK215], in data set [1], the “KINOMEscan GAK” value was 0. The “KINOMEscan MYO3B” value in data set [2] is recorded as 17.
